In patent US20250381249A1, “COMBINATION TREATMENT FOR RESISTANT HYPERTENSION” (Mayo Foundation for Medical Education and Research, priority 2018, published 2025):

Tests used:
Format in all cases: in vivo, rat
[1] = system: spontaneously hypertensive rats (SHR); assay: Individual and combined effects of MANP and Fs on BP and aldosterone in spontaneously hypertensive rats (Example 1); conditions: for Mean arterial pressure (MAP) Δ: 60 minute period, mean±SD
SHR [2] = assay: Acute study in SHR, neurohumoral analysis (plasma and urinary cGMP, aldosterone); conditions: Fs5 and Fs10, 60 minutes
Description: Rats were anesthetized in an induction chamber with inhaled Isoflurane 2.5%. During this brief state of anesthesia, the rats were administered IP Inactin 100 mg/kg to maintain anesthesia. An oxygen mask was used until the end of the experiment. The carotid artery was cannulated for arterial pressure measurements and the right jugular vein was cannulated for infusions. Pressures were recorded and analyzed digitally (Sonometrics, London, Ontario, Canada). Via a small incision in the lower abdominal wall, the bladder was cannulated for urine sampling. Immediately after preparation, a 30-minute equilibration period was started with intravenous inulin infusion. […] Plasma and urinary cGMP (Enzo Life Sciences) and aldosterone (DRG International, Springfield, NJ) were determined by ELISA. Inulin concentrations were measured using the anthrone method, as described elsewhere (Fuhr et al. (1955) Klin. Wochenschr 33:729-730). GFR was calculated by inulin clearance. Electrolytes were measured by flame photometry (IL943, Instrumentation Laboratory, UK). All measurements were performed according to manufacturer instructions.

SHR [3] = assay: Acute study in SHR, systemic hemodynamics (arterial BP); conditions: all three doses of Fs (1, 5, 10 mg/kg IV bolus)
Description: (§1) Acute Study Protocol in SHR: The cardiorenal and neurohumoral actions of MANP, Fs, or their combination were investigated in the genetic model of hypertension in male SHR (n=6 in each group). Rats were anesthetized in an induction chamber with inhaled Isoflurane 2.5%. During this brief state of anesthesia, the rats were administered IP Inactin 100 mg/kg to maintain anesthesia. An oxygen mask was used until the end of the experiment. The carotid artery was cannulated for arterial pressure measurements and the right jugular vein was cannulated for infusions. Pressures were recorded and analyzed digitally (Sonometrics, London, Ontario, Canada). Via a small incision in the lower abdominal wall, the bladder was cannulated for urine sampling.
Immediately after preparation, a 30-minute equilibration period was started with intravenous inulin infusion. […] After baseline measurements, rats were randomly assigned to ten groups: • Group 1—treated with MANP100; • Group 2—treated with MANP300; • Group 3—treated with MANP600; • Group 4—treated with Fs1; • Group 5—treated with Fs5; • Group 6—treated with Fs10; • Group 7—treated with MANP300+Fs5; • Group 8—treated with MANP300+Fs10; • Group 9—treated with MANP600+Fs10; and • Group 10—treated with inulin, normal saline, or inulin and normal saline. […]
(§2) Statistical Analysis: Values are expressed as mean±standard error of mean (SEM). […]

SHR [4] = assay: Acute study in SHR, renal function (GFR, urinary sodium and water excretion); conditions: Fs groups, 60 minutes, inulin clearance
Description: as §1, with “Via a small incision in the lower abdominal wall, the bladder was cannulated for urine sampling.” left out
Neurohormonal and Electrolyte Analysis: Plasma ANP was measured by radioimmunoassay (Phoenix Pharmaceuticals) as an assessment of MANP, as the ANP RIA fully detects MANP (Burnett et al. (1986) Science 231(4742):1145-1147). Plasma and urinary cGMP (Enzo Life Sciences) and aldosterone (DRG International, Springfield, NJ) were determined by ELISA. Inulin concentrations were measured using the anthrone method, as described elsewhere (Fuhr et al. (1955) Klin. Wochenschr 33:729-730). GFR was calculated by inulin clearance. Electrolytes were measured by flame photometry (IL943, Instrumentation Laboratory, UK). […]
as §2

In the case of `NS(=O)(=O)c1cc(C(=O)O)c(NCc2ccco2)cc1Cl` [Fs, furosemide], the “Mean arterial pressure (MAP) Δ” value ([1]; Fs1: 1 mg/kg Fs single bolus) is reported as −40±9 mmHg, the “Mean arterial pressure (MAP) Δ” value ([1]; Fs5: 5 mg/kg Fs single bolus) is reported as −55±8 mmHg and the “Mean arterial pressure (MAP) Δ” value ([1]; Fs10: 10 mg/kg Fs single bolus) is reported as −63±11 mmHg. For the same compound, the urinary flow ([1]; Fs, MANP and Fs+MANP groups, p<0.05) was “enhanced”, the “levels of aldosterone compared to the control, MANP100 and MANP300 groups” value (SHR [2]) was “significantly higher” and the “BP compared with controls” value (SHR [3]) was “significantly reduced”. For the same compound, the “GFR compared to the no treatment control groups” value (SHR [4]) was “significantly lower”.
